Assay results as given in patent publication US20260001914A1, “MACROCYCLIC PEPTIDES TARGETING KRAS” (Merck Sharp & Dohme LLC, priority 2022, published 2026).
*1 amine or outer side, *2 acyl side, *3 side chain or, on linkers, in order; H or OH if unused. Where a SMILES comes first, the peptide text is derived from it. Bridges are numbered along the chain shown (N, C = ends). [ ]: non-standard residue; d: D form. X34 = O=C(C[C@@H](Cc1ccccc1)C(=O)[*:2])C12CC(CN[*:1])(C1)C2; Phe(4-guanidino) = N=C(N)Nc1ccc(C[C@H](N)C(=O)O)cc1; X18 = CNC(=N)N(C)c1ccc(C[C@H](N[*:1])C(=O)[*:2])cc1; X22 = CNC(=N)N(C)CCC[C@@H](C(=O)[*:2])N(C)[*:1]; Ala(pyrimidin-5-yl) = N[C@@H](Cc1cncnc1)C(=O)O; X29 = CC(=O)N(C)CCC[C@@H](C(=O)[*:2])N(C)[*:1]; NMe3Pal(6-Me) = CN[C@@H](Cc1ccc(C)nc1)C(=O)O; X6 = O=C([C@H](Cc1cnn(C2COC2)c1)N[*:1])[*:2]; NMe3Pal(5-F) = CN[C@@H](Cc1cncc(F)c1)C(=O)O; NMeHis(τ-Me) = CN[C@@H](Cc1cn(C)cn1)C(=O)O; X14 = O=C([C@H](Cc1c(F)cncc1F)N[*:1])[*:2]; X37 = O=C([C@H](Cc1cnc(F)cc1F)N[*:1])[*:2]; X10 = CS(=O)(=O)CCCCN(CC(=O)[*:2])[*:1]; NMeAha = CN[C@@H](CCN=[N+]=[N-])C(=O)O; Nle(5,5-F2) = CC(F)(F)CC[C@H](N)C(=O)O; Phe(3-F) = N[C@@H](Cc1cccc(F)c1)C(=O)O; Phe(2-F) = N[C@@H](Cc1ccccc1F)C(=O)O; Abu(4,4-F2) = N[C@@H](CC(F)F)C(=O)O; NMe3Pal = CN[C@@H](Cc1cccnc1)C(=O)O; X1 = O=C(C12CC(CN[*:1])(C1)C2)[*:2]; X17 = O=C([C@H](CCCCF)N[*:1])[*:2]; NMeOrn(Me) = CNCCC[C@H](NC)C(=O)O; Ala(cPr) = N[C@@H](CC1CC1)C(=O)O; NMeF = CN[C@@H](Cc1ccccc1)C(=O)O; PhLac = O=C(O)[C@@H](O)Cc1ccccc1; X9 = CCCC[C@H](O[*:1])C(=O)[*:2]; 3Pal = N[C@@H](Cc1cccnc1)C(=O)O; Ahp(2) = CCCCC[C@H](N)C(=O)O; Cba = N[C@@H](CC1CCC1)C(=O)O; hLeu = CC(C)CC[C@H](N)C(=O)O; αMeC = C[C@](N)(CS)C(=O)O; NMeA = CN[C@@H](C)C(=O)O; Nle = CCCC[C@H](N)C(=O)O

Target: phosphorylation levels of ERK1/2 in AsPC-1 (homozygous KRAS-G12D) cells (Homo sapiens, UniProt P01116, G12D)
Assay: Cellular phospho-ERK assay in AsPC-1 cells (Alpha Screen), assay medium without fetal bovine serum;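 also: signal taken as phospho-ERK over total ERK per well, both detected in one multiplex bead assay, EC50 from four-parameter logistic fit of dose-response curves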
Format: cell-based
Conditions: phospho-ERK AlphaScreen, 18 h
Method: Assay plate was incubated at 37° C. 5% CO2 for the indicated length of time. […] Phosphorylated ERK and total ERK levels were detected by Alpha SureFire Ultra Multiplex pERK kit (PerkinElmer MPSU-PTERK) using 5 μL, acceptor bead mix and 5 μL donor bead mix, both prepared following the manufacturer's protocol. Plates were sealed using aluminum sealing tape (Costar 07-200-683) during incubation at ambient temperature with constant shaking at 300 rpm for 1 h (both acceptor and donor). Assay plates were read on a Envision Xcite Multilabel Reader (PerkinElmer 1040900) at ambient temperature, with emission at 535 nm (Total ERK) and emission at 615 nm (Phospho ERK). Ratio of pERK vs total ERK in each well was used as the final readout. Dose response curves and EC50 were analyzed using a 4-parameter logistic equation in GraphPad Prism software.

Sequence of phosphorylation levels of ERK1/2 in AsPC-1 (homozygous KRAS-G12D) cells (P01116 1-186 G12D): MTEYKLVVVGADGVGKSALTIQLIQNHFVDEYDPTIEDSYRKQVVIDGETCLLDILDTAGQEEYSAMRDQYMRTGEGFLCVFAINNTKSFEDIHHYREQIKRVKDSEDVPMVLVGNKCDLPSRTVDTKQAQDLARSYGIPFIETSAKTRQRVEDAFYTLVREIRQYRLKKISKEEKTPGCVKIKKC

Row | SMILES | EC50
1 | C[C@H]1C(=O)N[C@@H](Cc2cncnc2)C(=O)N[C@@H](CC2CC2)C(=O)N[C@@H](Cc2ccccc2F)C(=O)N[C@@H](CCC(C)(F)F)C(=O)N(C)[C@@H](Cc2ccccc2)C(=O)NCC23CC(C2)(C3)C(=O)C[C@@H](Cc2ccccc2)C(=O)N1C [compound 290, cyclo(CPhe-NMeA~PyrimAla-cPrA-Phe2F-Nle3F2-NMeF-amBCP)] (cyclo([Ala(cPr)][Phe(2-F)][Nle(5,5-F2)][NMeF][X34][NMeA][Ala(pyrimidin-5-yl)])) | 1.07 µM
2 | CCCCC[C@@H]1NC(=O)[C@H](Cc2ccc(OC)cc2)NC(=O)[C@H](CC2CCC2)NC(=O)[C@H](Cc2ccc(N(C)C(=N)NC)cc2)NC(=O)[C@H](CCCNC)N(C)C(=O)[C@H](Cc2ccccc2)NC(=O)CSC[C@@](C)(C(N)=O)NC(=O)[C@H](Cc2ccc(C)nc2)N(C)C1=O [compound 395, cyclo(F-NMeOmMe-Phe4GnMeMe-cBuA-TyrOMe-Ahp-NMe3Pal4Me-aMeCl-ClAc)] ({CH2CO}-F[NMeOrn(Me)][X18][Cba]Y(Me)[Ahp(2)][NMe3Pal(6-Me)][αMeC]-NH2; thioether N-8) | > 50.8 µM
3 | CCCC[C@@H]1NC(=O)[C@H](Cc2cccnc2)NC(=O)[C@H](CCN=[N+]=[N-])N(C)C(=O)[C@H](Cc2ccccc2)OC(=O)C23CC(CNC(=O)[C@H](Cc4cccnc4)N(C)C(=O)[C@H](CCCC)NC(=O)[C@H](Cc4ccccc4F)NC1=O)(C2)C3 [compound 249, cyclo(FLac-NMeDabN3-3Pal-Nle-Phe2F-Nle-NMe3Pal-amBCP)] (cyclo([3Pal][Nle][Phe(2-F)][Nle][NMe3Pal][X1][PhLac][NMeAha])) | 3.95 µM
4 | CC(C)CC[C@@H]1NC(=O)[C@H](Cc2c(F)cncc2F)NC(=O)[C@H](CC2CC2)NC(=O)[C@H](Cc2cncnc2)NC(=O)[C@H](C)N(C)C(=O)[C@H](Cc2ccccc2)OC(=O)C23CC(CNC(=O)[C@H](Cc4ccccc4)N(C)C1=O)(C2)C3 [compound 292, cyclo(FLac-NMeA-PyrimAla-cPrA-4Pal26F2-hL-NMeF-amBCP)] (cyclo([Ala(cPr)][X14][hLeu][NMeF][X1][PhLac][NMeA][Ala(pyrimidin-5-yl)])) | 14.5 µM
5 | CCCC[C@@H]1NC(=O)[C@H](Cc2cccnc2)NC(=O)[C@H](C)N(C)C(=O)[C@H](Cc2ccccc2)OC(=O)C23CC(CNC(=O)[C@H](Cc4cccnc4)N(C)C(=O)[C@H](CCC(C)C)NC(=O)[C@H](Cc4ccccc4F)NC1=O)(C2)C3 [compound 124, cyclo(FLac-NMeA-3Pal-Nle-Phe2F-hL-NMe3Pal-amBCP)] (cyclo([3Pal][Nle][Phe(2-F)][hLeu][NMe3Pal][X1][PhLac][NMeA])) | 4.65 µM
6 | CC(C)CC[C@@H]1NC(=O)[C@H](Cc2cnn(C3COC3)c2)NC(=O)[C@H](CC2CC2)NC(=O)[C@H](Cc2cncnc2)NC(=O)[C@H](C)N(C)C(=O)[C@H](Cc2ccccc2)OC(=O)C23CC(CNC(=O)[C@H](Cc4ccccc4)N(C)C1=O)(C2)C3 [compound 300, cyclo(FLac-NMeA-PyrimAla-cPrA-AlaPyz1Ox-hL-NMeF-amBCP)] (cyclo([Ala(cPr)][X6][hLeu][NMeF][X1][PhLac][NMeA][Ala(pyrimidin-5-yl)])) | > 50.8 µM
7 | CCCCC[C@@H]1NC(=O)[C@H](Cc2ccc(OC)cc2)NC(=O)[C@H](CC2CCC2)NC(=O)[C@H](Cc2ccc(NC(=N)N)cc2)NC(=O)[C@H](CCCN(C)C(=N)NC)N(C)C(=O)[C@H](Cc2ccccc2)NC(=O)CSC[C@@](C)(C(N)=O)NC(=O)[C@H](Cc2ccccc2)N(C)C1=O [compound 381, cyclo(F-NMeArg1MeMe-Phe4Gn-cBuA-TyrOMe-Ahp-NMeF-aMeCl-ClAc)] ({CH2CO}-F[X22][Phe(4-guanidino)][Cba]Y(Me)[Ahp(2)][NMeF][αMeC]-NH2; thioether N-8) | > 50.8 µM
8 | CCCCC[C@@H]1NC(=O)[C@H](Cc2ccc(OC)cc2)NC(=O)[C@H](CC2CCC2)NC(=O)[C@H](Cc2ccc(N3CCC[C@@H]3CN)cc2)NC(=O)[C@H](CCCNC(=N)N)NC(=O)[C@H](Cc2ccccc2)NC(=O)CSC[C@@](C)(C(N)=O)NC(=O)[C@H](Cc2ccccc2)N(C)C1=O [compound 391, cyclo(F-R~Phe4RamPyrr-cBuA-TyrOMe-Abp-NMeF-aMeCl-ClAc)] | > 50.8 µM
9 | CC(C)CC[C@@H]1NC(=O)[C@H](Cc2cccc(F)c2)NC(=O)[C@H](CC2CCC2)NC(=O)[C@H](Cc2cncnc2)NC(=O)[C@H](C)N(C)C(=O)[C@H](Cc2ccccc2)OC(=O)C23CC(CNC(=O)[C@H](Cc4ccccc4)N(C)C1=O)(C2)C3 [compound 303, cyclo(FLac-NMeA-PyrimAla-cBuA-Phe3F-hL-NMeF-amBCP)] (cyclo([Cba][Phe(3-F)][hLeu][NMeF][X1][PhLac][NMeA][Ala(pyrimidin-5-yl)])) | 0.806 µM
10 | CC(C)CC[C@@H]1NC(=O)[C@H](Cc2cnc(F)cc2F)NC(=O)[C@H](CC2CC2)NC(=O)[C@H](Cc2cncnc2)NC(=O)[C@H](C)N(C)C(=O)[C@H](Cc2ccccc2)OC(=O)C23CC(CNC(=O)[C@H](Cc4ccccc4)N(C)C1=O)(C2)C3 [compound 294, cyclo(FLac-NMeA-PyrimAla-cPrA-3Pal46F2-hL-NMeF-amBCP)] (cyclo([Ala(cPr)][X37][hLeu][NMeF][X1][PhLac][NMeA][Ala(pyrimidin-5-yl)])) | 4.66 µM
11 | C[C@H]1C(=O)N[C@@H](Cc2cccnc2)C(=O)N[C@@H](CC2CCC2)C(=O)N[C@@H](Cc2ccccc2F)C(=O)N[C@@H](CCC(C)(F)F)C(=O)N(C)[C@@H](Cc2cncc(F)c2)C(=O)NCC23CC(C2)(C3)C(=O)O[C@@H](Cc2ccccc2)C(=O)N1C [compound 285, cyclo(FLac-NMeA-3Pal-cBuA-Phe2F-Nle3F2-NMe3Pal5F-amBCP)] (cyclo([3Pal][Cba][Phe(2-F)][Nle(5,5-F2)][NMe3Pal(5-F)][X1][PhLac][NMeA])) | 5.78 µM
12 | CCCCC[C@@H]1NC(=O)[C@H](Cc2ccc(OC)cc2)NC(=O)[C@H](CC2CCC2)NC(=O)[C@H](Cc2ccoc2)NC(=O)[C@H](CCCNC(=N)N)NC(=O)[C@H](Cc2ccccc2)NC(=O)CSC[C@@](C)(C(N)=O)NC(=O)[C@H](Cc2ccccc2)N(C)C1=O [compound 371, cyclo(F-R-Ala3Fur-cBuA-TyrOMe-Ahp-NMeF-aMeCl-ClAc)] | > 50.8 µM
13 | CCCCC[C@@H]1NC(=O)[C@H](Cc2ccc(OC)cc2)NC(=O)[C@H](CC2CCC2)NC(=O)[C@H](Cc2cccnc2)NC(=O)[C@H](CCCNC(=N)N)NC(=O)[C@H](Cc2ccccc2)NC(=O)CSC[C@@](C)(C(N)=O)NC(=O)[C@H](Cc2cn(C)cn2)N(C)C1=O [compound 378, cyclo(F-R-3Pal-cBuA-TyrOMe-Ahp-NMeHis1Me-aMeCl-ClAc)] ({CH2CO}-FR[3Pal][Cba]Y(Me)[Ahp(2)][NMeHis(τ-Me)][αMeC]-NH2; thioether N-8) | > 50.8 µM
14 | CC(C)CC[C@@H]1NC(=O)[C@H](Cc2ccccc2F)NC(=O)[C@H](CC(F)F)NC(=O)[C@H](Cc2cncnc2)NC(=O)[C@H](C)N(C)C(=O)[C@H](Cc2ccccc2)OC(=O)C23CC(CNC(=O)[C@H](Cc4ccccc4)N(C)C1=O)(C2)C3 [compound 304, cyclo(FLac-NMeA-PyrimAla-AbuF2-Phe2F-hL-NMeF-amBCP)] (cyclo([NMeA][Ala(pyrimidin-5-yl)][Abu(4,4-F2)][Phe(2-F)][hLeu][NMeF][X1][PhLac])) | 1.87 µM
15 | CCCC[C@@H]1NC(=O)[C@H](Cc2ccccc2F)NC(=O)[C@H](CCCC)OC(=O)[C@H](Cc2cccnc2)NC(=O)[C@H](CCN=[N+]=[N-])N(C)C(=O)[C@H](Cc2ccccc2)NC(=O)C23CC(CNC(=O)[C@H](Cc4cccnc4)N(C)C1=O)(C2)C3 [compound 250, cyclo(F-NMeDabN3-3Pal-NleLac-Phe2F-Nle-NMe3Pal-amBCP)] (cyclo(F[NMeAha][3Pal][X9][Phe(2-F)][Nle][NMe3Pal][X1])) | > 50.8 µM
16 | C[C@H]1C(=O)N[C@@H](Cc2cncnc2)C(=O)N[C@@H](CC2CC2)C(=O)N[C@@H](Cc2ccccc2F)C(=O)N[C@@H](CC(F)F)C(=O)N(C)[C@@H](Cc2ccccc2)C(=O)NCC23CC(C2)(C3)C(=O)O[C@@H](Cc2ccccc2)C(=O)N1C [compound 271, cyclo(FLac-NMeA-PyrimAla-cPrA-Phe2F-AbuF2-NMeF-amBCP)] (cyclo([Ala(cPr)][Phe(2-F)][Abu(4,4-F2)][NMeF][X1][PhLac][NMeA][Ala(pyrimidin-5-yl)])) | 36.6 µM
17 | C[C@H]1C(=O)N[C@@H](Cc2cncnc2)C(=O)N[C@@H](CCCCF)C(=O)N[C@@H](Cc2ccccc2F)C(=O)N[C@@H](CCCCF)C(=O)N(C)[C@@H](Cc2ccccc2)C(=O)NCC23CC(C2)(C3)C(=O)O[C@@H](Cc2ccccc2)C(=O)N1C [compound 128, cyclo(FLac-NMeA-PyrimAla-NleF-Phe2F-NleF-NMeF-amBCP)] (cyclo([NMeA][Ala(pyrimidin-5-yl)][X17][Phe(2-F)][X17][NMeF][X1][PhLac])) | 3.72 µM
18 | CCCC[C@@H]1NC(=O)[C@H](Cc2cccnc2)NC(=O)[C@H](CCCN(C)C(C)=O)N(C)C(=O)[C@H](Cc2ccccc2)OC(=O)C23CC(CNC(=O)[C@H](Cc4cccnc4)N(C)C(=O)[C@H](CCCC)NC(=O)[C@H](Cc4ccccc4F)NC1=O)(C2)C3 [compound 405, cyclo(FLac-NMeOrnAc-3Pal-Nle-Phe2F-Nle-NMe3Pal-amBCP)] (cyclo([3Pal][Nle][Phe(2-F)][Nle][NMe3Pal][X1][PhLac][X29])) | > 50.8 µM
19 | CCCC[C@@H]1NC(=O)[C@H](Cc2cccnc2)NC(=O)[C@H](C)N(C)C(=O)[C@H](Cc2ccccc2)OC(=O)C23CC(CNC(=O)[C@H](Cc4ccc(C)nc4)N(C)C(=O)[C@H](CCCC)NC(=O)[C@H](Cc4ccccc4F)NC1=O)(C2)C3 [compound 402, cyclo(FLac-NMeA-3Pal-Nle-Phe2F-Nle-NMe3Pal4Me-amBCP)] (cyclo([3Pal][Nle][Phe(2-F)][Nle][NMe3Pal(6-Me)][X1][PhLac][NMeA])) | 9.95 µM
20 | CCCC[C@@H]1NC(=O)[C@H](Cc2cccnc2)NC(=O)CN(CCCCS(C)(=O)=O)C(=O)[C@H](Cc2ccccc2)OC(=O)C23CC(CNC(=O)[C@H](Cc4cccnc4)N(C)C(=O)[C@H](CCCC)NC(=O)[C@H](Cc4ccccc4F)NC1=O)(C2)C3 [compound 407, cyclo(FLac-NOHmsbGly-3Pal-Nle-Phe2F-Nle-NMe3Pal-amBCP)] (cyclo([3Pal][Nle][Phe(2-F)][Nle][NMe3Pal][X1][PhLac][X10])) | > 50.8 µM
